Experimental data from patent publication US7148232B2, “Oxazolo, thiazolo and selenazolo [4,5-c]-quinolin-4-amines and analogs thereof” (3M Innovative Properties Company, priority 1998, dated 2006).
Structures can show the parent of a compound that is named as a salt. Values belong to the compound of their own block, whether it stands above or below them.

Columns and labels:
interferon (α) [1] = assay: Interferon (α) induction in human cells (in vitro human blood cell system, interferon by bioassay); assay type: cell-based; settings: human PBM's, 48 hours
Experimental: An in vitro human blood cell system was used to assess interferon induction by compounds of the invention. Activity is based on the measurement of interferon secreted into culture media. Interferon is measured by bioassay.
Whole blood is collected by venipuncture into EDTA vacutainer tubes. Peripheral blood mononuclear cells (PBM's) are separated from whole blood by using either LeucoPREP™ Brand Cell Separation Tubes (available from Becton Dickinson) or Ficoll-Paque® solution (available from Pharmacia LKB Biotechnology Inc, Piscataway, N.J.). […] 200 μL portions of PBM suspension are added to 96 well (flat bottom) sterile tissue culture plates (Becton Dickinson Labware, Lincoln Park, N.J.).
The compounds are solubilized in ethanol, dimethyl sulfoxide or tissue culture water then diluted with tissue culture water, 0.01N sodium hydroxide or 0.01N hydrochloric acid (The choice of solvent will depend on the chemical characteristics of the compound being tested.). Ethanol or DMSO concentration should not exceed a final concentration of 1% for addition to the culture wells. Compounds are initially tested in a concentration range of from about 0.1 μg/mL to about 5 μg/mL. Compounds which show induction at a concentration of 0.5 μg/mL are then tested in a wider concentration range.
The solution of test compound is added in a volume (less than or equal to 50 μL) to the wells containing 200 μL of diluted whole blood or of PBM's in media. Solvent and/or media is added to control wells (wells with no test compound) and as needed to adjust the final volume of each well to 250 μL. The plates are covered with plastic lids, vortexed gently and then incubated for 48 hours at 37° C. with a 5% carbon dioxide atmosphere.
Following incubation, the plates are covered with parafilm and then centrifuged at 1000 rpm for 10 to 15 minutes at 4° C. in a Damon IEC Model CRU-5000 centrifuge. Media (about 200 μL) is removed from 4 to 8 wells and pooled into 2 mL sterile freezing vials. Samples are maintained at −70° C. until analysis.
Interferon is determined by bioassay using A549 human lung carcinoma cells challenged with encephalomyocarditis. The details of the bioassay method have been described by G. L. Brennan and L. H. Kronenberg in “Automated Bioassay of Interferons in Micro-test Plates”, Biotechniques, June/Jul. […] The incubated cells are infected with an inoculum of encephalomyocarditis virus. The infected cells are incubated for an additional period at 37° C. before quantifying for viral cytopathic effect. The viral cytopathic effect is quantified by staining followed by spectrophotometric absorbance measurements. Results are expressed as alpha reference units/mL based on the value obtained for NIH HU IF-L standard.
Compounds of the invention were tested for their ability to induce interferon in human cells using the test method described above.

interferon (α) [2] = assay: Cytokine induction in human cells: interferon (α) secreted by PBMCs (ELISA or bioassay); assay type: cell-based; settings: 18 to 24 hours
Experimental: (§1) An in vitro human blood cell system was used to assess cytokine induction by compounds of the invention.
(§2) Whole blood is collected by venipuncture into EDTA vacutainer tubes from healthy human donors. […] The PBMC suspension is added to 48 well flat bottom sterile tissue culture plates (Costar, Cambridge, Mass. or Becton Dickinson Labware, Lincoln Park, N.J.) containing an equal volume of RPMI complete media containing test compound.
(§3) The compounds are solubilized in dimethyl sulfoxide (DMSO). The DMSO concentration should not exceed a final concentration of 1% for addition to the culture wells.
(§4) The solution of test compound is added at 60 μM to the first well containing RPMI complete and serial 3 fold dilutions are made. The PBMC suspension is then added to the wells in an equal volume, bringing the test compound concentrations to the desired range (0.12 to 30 μM). The final concentration of PBMC suspension is 1.5–2×10^6 cells/mL. The plates are covered with sterile plastic lids, mixed gently and then incubated for 18 to 24 hours at 37° C. in a 5% carbon dioxide atmosphere.
(§5) Following incubation the plates are centrifuged for 5–10 minutes at 1000 rpm (˜200×g) at 4° C. The cell culture supernatant is removed with a sterile polypropylene pipet and transferred to sterile polypropylene tubes. Samples are maintained at −30 to −70° C. until analysis. The samples are analyzed for interferon (α) by either ELISA or bioassay and for tumor necrosis factor (α) by ELISA
Interferon is determined by bioassay using A549 human lung carcinoma cells challenged with encephalomyocarditis. […] Briefly stated the method is as follows: A549 cells are incubated with dilutions of samples or a standard interferon at 37° C. for 24 hours. The incubated cells are then infected with an inoculum of encephalomyocarditis virus. The infected cells are incubated for an additional 24 hours at 37° C. before evaluating for viral cytopathic effect. The viral cytopathic effect is quantified by staining with crystal violet followed by visual scoring of the plates. Results are expressed as alpha reference units/mL based on the value obtained for NIH Human Leukocyte IFN standard.
Interferon (α) concentration is determined by ELISA using a Human Multi-Species kit from PBL Biomedical Laboratories, New Brunswick, N.J. according to the manufacturer's instructions.

[3] = test system: tumor necrosis factor (α); assay: Cytokine induction in human cells: tumor necrosis factor (α) secreted by PBMCs (ELISA); assay type: cell-based; settings: 18 to 24 hours
Experimental: as §1, §2, §3, §4, §5
Tumor necrosis factor (α) (TNF) concentration is determined using ELISA kits available from Genzyme, Cambridge, Mass.; R&D Systems, Minneapolis, Minn.; or Pharmingen, San Diego, Calif. according to the manufacturer's instructions.

SMILES: CCc1nc2c(N)nc3ccccc3c2s1.Cl
melting point: 268 to 270 °C

SMILES: CCCc1nc2c(N)nccc2s1 (as salt: trifluoroacetate) [Example 62, 2-Propylpyrido[3,4-d][1,3]thiazol-4-amine Trifluoroacetate]
melting point: 160 to 162 °C

SMILES: Cl.Nc1nc2ccccc2c2scnc12.O (hydrate or solvate) [Example 5, Thiazolo[4,5-c]quinolin-4-amine Hydrochloride Hydrate]
melting point: 284 to 285 °C

SMILES: Cl.Nc1nc2ccccc2c2scnc12.O [Example 5, Thiazolo[4,5-c]quinolin-4-amine Hydrochloride Hydrate]
Interferon (α) Induction in Human Cells (interferon (α) [1]; Dose Concentration 0.01 μg/mL): −
Interferon (α) Induction in Human Cells (interferon (α) [1]; Dose Concentration 0.05 μg/mL): −
Interferon (α) Induction in Human Cells (interferon (α) [1]; Dose Concentration 0.10 μg/mL): −
Interferon (α) Induction in Human Cells (interferon (α) [1]; Dose Concentration 0.50 μg/mL): −
Interferon (α) Induction in Human Cells (interferon (α) [1]; Dose Concentration 1.0 μg/mL): +
Interferon (α) Induction in Human Cells (interferon (α) [1]; Dose Concentration 5.0 μg/mL): +
Interferon (α) Induction in Human Cells (interferon (α) [1]; Dose Concentration 10.0 μg/mL): +
Interferon (α) Induction in Human Cells (interferon (α) [1]; Dose Concentration 25.0 μg/mL): +
Interferon (α) Induction in Human Cells (interferon (α) [1]; Dose Concentration 50.0 μg/mL): +

SMILES: Nc1nc2ccccc2c2scnc12 [Example 6, Thiazolo[4,5-c]quinolin-4-amine]
melting point: 172.4 °C (dec.)

SMILES: CCCCc1nc2c(N)nc3ccccc3c2s1 [Example 18, 2-Butylthiazolo[4,5-c]quinolin-4-amine]
Interferon (α) Induction (interferon (α) [2]; Dose Concentration 0.12 μM): −
Interferon (α) Induction (interferon (α) [2]; Dose Concentration 0.37 μM): −
Interferon (α) Induction (interferon (α) [2]; Dose Concentration 1.11 μM): +
Interferon (α) Induction (interferon (α) [2]; Dose Concentration 3.33 μM): +
Interferon (α) Induction (interferon (α) [2]; Dose Concentration 10 μM): +
Interferon (α) Induction (interferon (α) [2]; Dose Concentration 30 μM): +
Interferon (α) Induction in Human Cells (interferon (α) [1]; Dose Concentration 0.01 μg/mL): −
Interferon (α) Induction in Human Cells (interferon (α) [1]; Dose Concentration 0.05 μg/mL): −
Interferon (α) Induction in Human Cells (interferon (α) [1]; Dose Concentration 0.10 μg/mL): +
Interferon (α) Induction in Human Cells (interferon (α) [1]; Dose Concentration 0.50 μg/mL): +
Interferon (α) Induction in Human Cells (interferon (α) [1]; Dose Concentration 1.0 μg/mL): +
Interferon (α) Induction in Human Cells (interferon (α) [1]; Dose Concentration 5.0 μg/mL): +
Tumor Necrosis Factor Induction ([3]; Dose Concentration 0.12 μM): +
Tumor Necrosis Factor Induction ([3]; Dose Concentration 0.37 μM): +
Tumor Necrosis Factor Induction ([3]; Dose Concentration 1.11 μM): +
Tumor Necrosis Factor Induction ([3]; Dose Concentration 3.33 μM): +
Tumor Necrosis Factor Induction ([3]; Dose Concentration 10 μM): +
Tumor Necrosis Factor Induction ([3]; Dose Concentration 30 μM): +

SMILES: Nc1nc2ccccc2c2sc(Cc3ccccc3)nc12 [Example 34, 2-Benzylthiazolo[4,5-c]quinolin-4-amine Hydrochloride]
Interferon (α) Induction in Human Cells (interferon (α) [1]; Dose Concentration 0.01 μg/mL): −
Interferon (α) Induction in Human Cells (interferon (α) [1]; Dose Concentration 0.05 μg/mL): −
Interferon (α) Induction in Human Cells (interferon (α) [1]; Dose Concentration 0.10 μg/mL): −
Interferon (α) Induction in Human Cells (interferon (α) [1]; Dose Concentration 0.50 μg/mL): −
Interferon (α) Induction in Human Cells (interferon (α) [1]; Dose Concentration 1.0 μg/mL): −
Interferon (α) Induction in Human Cells (interferon (α) [1]; Dose Concentration 5.0 μg/mL): −

SMILES: CCCc1nc2c[n+]([O-])c3ccc(C)cc3c2s1 [Example 35, 8-Methyl-2-propylthiazolo[4,5-c]quinoline-5N-oxide]
melting point: 143 to 145 °C

SMILES: CCCCc1nc2c[n+]([O-])c3ccccc3c2o1 [Example 40, 2-Butyloxazolo[4,5-c]quinoline-5N-oxide]
melting point: 120 to 121 °C

SMILES: CCCCc1nc2c(N)nc3ccccc3c2o1 [Example 41, 2-Butyloxazolo[4,5-c]quinolin-4-amine]
Interferon (α) Induction in Human Cells (interferon (α) [1]; Dose Concentration 0.01 μg/mL): +
Interferon (α) Induction in Human Cells (interferon (α) [1]; Dose Concentration 0.05 μg/mL): +
Interferon (α) Induction in Human Cells (interferon (α) [1]; Dose Concentration 0.10 μg/mL): +
Interferon (α) Induction in Human Cells (interferon (α) [1]; Dose Concentration 0.50 μg/mL): +
Interferon (α) Induction in Human Cells (interferon (α) [1]; Dose Concentration 1.0 μg/mL): +
Interferon (α) Induction in Human Cells (interferon (α) [1]; Dose Concentration 5.0 μg/mL): +

SMILES: CCCCc1nc2c[n+]([O-])c3cccnc3c2s1 [Example 57, 2-Butylthiazolo[4,5-c][1,5]naphthyridine-5N-oxide]
melting point: 65 to 69 °C

SMILES: CCCc1nc2c(N)nccc2s1 [Example 62, 2-Propylpyrido[3,4-d][1,3]thiazol-4-amine Trifluoroacetate]
Interferon (α) Induction (interferon (α) [2]; Dose Concentration 0.12 μM): −
Interferon (α) Induction (interferon (α) [2]; Dose Concentration 0.37 μM): −
Interferon (α) Induction (interferon (α) [2]; Dose Concentration 1.11 μM): −
Interferon (α) Induction (interferon (α) [2]; Dose Concentration 3.33 μM): −
Interferon (α) Induction (interferon (α) [2]; Dose Concentration 10 μM): −
Interferon (α) Induction (interferon (α) [2]; Dose Concentration 30 μM): −
Tumor Necrosis Factor Induction ([3]; Dose Concentration 0.12 μM): −
Tumor Necrosis Factor Induction ([3]; Dose Concentration 0.37 μM): −
Tumor Necrosis Factor Induction ([3]; Dose Concentration 1.11 μM): −
Tumor Necrosis Factor Induction ([3]; Dose Concentration 3.33 μM): −
Tumor Necrosis Factor Induction ([3]; Dose Concentration 10 μM): −
Tumor Necrosis Factor Induction ([3]; Dose Concentration 30 μM): −

Other lines, results leading:

melting point: 152 to 155 °C
SMILES: Nc1nc2ccccc2c2sc(Cc3ccccc3)nc12 (as salt: hydrochloride) [Example 34, 2-Benzylthiazolo[4,5-c]quinolin-4-amine Hydrochloride]

melting point: 128 °C
SMILES: CCc1nc2c[n+]([O-])c3ccccc3c2s1 [Example 7, 2-Ethylthiazolo[4,5-c]quinoline-5N-oxide]

melting point: 123 °C
SMILES: CCCc1nc2c[n+]([O-])c3ccccc3c2s1 [Example 11, 2-Propylthiazolo[4,5-c]quinoline-5N-oxide]

melting point: 142 to 144 °C
SMILES: CCCCCc1nc2c[n+]([O-])c3ccccc3c2s1 [Example 15, 2-Pentylthiazolo[4,5-c]quinoline-5N-oxide]

melting point: 133 to 135 °C
SMILES: CCCCc1nc2c[n+]([O-])c3ccccc3c2s1 [Example 17, 2-Butylthiazolo[4,5-c]quinoline-5N-oxide]

melting point: 268 to 270 °C
SMILES: [O-][n+]1cc2nc(/C=C/c3ccccc3)sc2c2ccccc21 [Example 21, 2-(2-Phenyl-1-ethenyl)thiazolo[4,5-c]quinoline-5N-oxide]

melting point: 165 to 169 °C
SMILES: [O-][n+]1cc2nc(CCc3ccccc3)sc2c2ccccc21 [Example 23, 2-(2-Phenyl-1-ethyl)thiazolo[4,5-c]quinoline-5N-oxide]

melting point: 187 to 189 °C
SMILES: CC(C)(O)Cc1nc2c[n+]([O-])c3ccccc3c2s1 [Example 25, 2-Methyl-1-(thiazolo[4,5-c]quinolin-2-yl)-2-propanol-5N-oxide]

melting point: 138 to 140 °C
SMILES: CCOCc1nc2c[n+]([O-])c3ccccc3c2s1 [Example 27, 2-(Ethoxymethyl)thiazolo[4,5-c]quinoline-5N-oxide]

melting point: 185 to 186 °C
SMILES: [O-][n+]1cc2nc(Cc3ccccc3)sc2c2ccccc21 [Example 33, 2-Benzylthiazolo[4,5-c]quinoline-5N-oxide]

melting point: 245 to 247 °C
SMILES: CS(=O)(=O)c1nc2c[n+]([O-])c3ccccc3c2s1 [Example 51, 2-(Methylsulfonyl)thiazolo[4,5-c]quinolin-5N-oxide]

melting point: 241 to 242 °C
SMILES: [O-][n+]1cc2nc(N3CCOCC3)sc2c2ccccc21 [Example 52, 2-(4-Morpholino)thiazolo[4,5-c]quinoline-5N-oxide]
